Converted amounts (≈) assume the structure as drawn.
Columns and labels:
Experiment in all cases: Antibacterial MIC/MBC (broth microdilution)
[1] = system: Streptococcuss pyogenes ATCC 19615; format: cell-based, Streptococcus pyogenes; settings: Streptococcus pyogenes, ATCC19615, Streptococcuss pyogenes ATCC 19615; for MBC: read-out: MBC; for MIC: read-out: MIC
Excerpt: (§1) Twelve reference bacterial strains and nine MDR clinically relevant bacterial strains were used in this study. Gram-negative bacteria comprised reference strains E. coli ATCC 25922, K. pneumoniae ATCC 13883, Salmonella enterica serovar Typhimurium CECT 443, P. aeruginosa ATCC 27853, A. baumannii ATCC 19606, C. jejuni ATCC 33560 (ATCC—American Type Culture Collection; CECT—Colección Espanola de Cultivos Tipo); clinical isolates E. coli SA/2, an extended-spectrum β-lactamase (ESBL)-producing strain and P. aeruginosa 33b, a pan-drug-resistant isolate; and animal isolates C. jejuni P5/4, a ciprofloxacin-resistant strain, C. jejuni 4432, C. jejuni 4433, C. jejuni 4448, and E. coli 2252, a COL-resistant strain [42]. Gram-positive strains included S. aureus ATCC 29213, E. faecalis ATCC 29212, S. pyogenes ATCC 19615, and environmental isolates methicillin-resistant S. aureus (MRSA) 66/1 [43], and VAN-resistant enterococci (VRE) E. faecalis B3/101 [44]. Gram-negative fish pathogens Yersinia ruckeri ATCC 29473, Listonella anguillarum ATCC 1924, and Tenacibaculum maritimum ATCC 43397 were also included.
(§2) Strains were kept in Trypto-Casein Soy agar (TSA—Biokar Diagnostics, Allone, Beauvais, France) slants and, before each assay, were sub-cultured in Mueller-Hinton agar (MHA—Biokar Diagnostics, Allone, Beauvais, France). Y. ruckeri ATCC 29473 and L. anguillarum ATCC 1924 were kept in Nutrient Agar (Condalab, Madrid, Spain) and T. maritimum ATCC 43397 was kept in TMM agar (Condalab, Madrid, Spain), and were sub-cultured in the respective culture media before each assay. For S. pyogenes ATCC 19615, CAMHB was supplemented with 3.75% lysed horse blood (LBH—Oxoid, Basingstoke, England), whereas for C. jejuni it was supplemented with 2.5% LHB. Colony-forming unit counts of the inoculum were conducted to determine the initial inoculum size (which should be approximately 5×10^5 CFU/mL). Sterility and growth controls were included in each assay. The 96-well U-shaped untreated polystyrene microtiter plates were incubated for 20 h at 37 degrees C. (42 degrees C. for C. jejuni, in a microaerophilic atmosphere) and the minimal inhibitory concentration (MIC) was determined as the lowest concentration of compound that prevented visible growth. The minimal bactericidal concentration (MBC) was determined by spreading 100 μL of the content of the wells with no visible growth on MH plates. The MBC was determined as the lowest concentration of compound that killed 99.9% of the initial inoculum after overnight incubation at 37 degrees C. Two independent assays were performed for reference and MDR strains.
(§3) An initial screening of the antibacterial activity of the compounds was performed by the Kirby-Bauer disk diffusion method, as recommended by the Clinical and Laboratory Standards Institute (CLSI). Briefly, sterile 6 mm blank paper disks (Oxoid, Basingstoke, England) impregnated with 15 μg of each compound were placed on inoculated MH agar plates. A blank disk with dimethylsulfoxide (DMSO) was used as a negative control. MH inoculated plates were incubated for 18-20 h at 37 degrees C. At the end of incubation, the inhibition halos where measured. The MIC was used to determine the antibacterial activity of each compound, in accordance with the recommendations of the CLSI. Two-fold serial dilutions of the compounds were prepared in Mueller-Hinton Broth 2 (MHB2—Sigma-Aldrich, St. Louis, MO, USA) within the concentration range of 0.062-64 μg/mL. CTX ranging between 0.031-16 μg/mL was used as a control. Sterility and growth controls were included in each assay. Purity checks and colony counts of the inoculum suspensions were also performed in order to ensure that the final inoculum density closely approximates the intended number (5×10^5 CFU/mL). The MIC was determined as the lowest concentration of compound that inhibited growth of the bacteria. The MBC was assessed by spreading 10 μL of culture collected from wells showing no visible growth on MH agar plates. […]

E. faecalis B3/101 (VRE) = format: cell-based, Enterococcus faecalis; settings: for MBC / MIC: Enterococcus faecalis, E. faecalis B3/101 (VRE); for MBC: read-out: MBC; for MIC: read-out: MIC
Excerpt: as §1, §2, §3

[2] = system: Enterococcuss faecalis ATCC 29212; format: cell-based, Enterococcus faecalis; settings: for MBC / MIC: Enterococcus faecalis, ATCC29212, Enterococcuss faecalis ATCC 29212; for MBC: read-out: MBC; for MIC: read-out: MIC; for antibacterial activity (in words): E. faecalis ATCC 29212
Excerpt: as §1, §2, §3

[3] = system: Staphylococcus aureus ATCC 29213; format: cell-based; settings: for MBC: ATCC29213, read-out: MBC; for MIC: ATCC29213, read-out: MIC
Excerpt: as §1, §2, §3

[4] = system: Listonella anguilarum ATCC 1924; format: cell-based; settings: for MBC / MIC: Listonella anguilarum ATCC 1924; for MBC: read-out: MBC; for MIC: read-out: MIC; for antibacterial activity (in words): Listonella anguilarum
Excerpt: as §1, §2, §3

[5] = system: Acinetobacter baumannii ATCC 19606; format: cell-based; settings: for MBC / MIC: ATCC19606, Acinetobacter baumannii ATCC 19606; for MBC: read-out: MBC; for MIC: read-out: MIC; for antibacterial activity (in words): A. baumannii ATCC 19606
Excerpt: as §1, §2, §3

[6] = system: Campylobacter jejuni ATCC 33560; format: cell-based; settings: ATCC33560, Campylobacter jejuni ATCC 33560; for MBC: read-out: MBC; for MIC: read-out: MIC
Excerpt: as §1, §2, §3

C. jejuni P5/4 = format: cell-based, Campylobacter jejuni; settings: Campylobacter jejuni; for MBC: read-out: MBC; for MIC: read-out: MIC
Excerpt: as §1, §2, §3

C. jejuni 4432 = format: cell-based, Campylobacter jejuni; settings: Campylobacter jejuni; for MBC: read-out: MBC; for MIC: read-out: MIC
Excerpt: as §1, §2, §3

C. jejuni 4448 = format: cell-based, Campylobacter jejuni; settings: Campylobacter jejuni; for MBC: read-out: MBC; for MIC: read-out: MIC
Excerpt: as §1, §2, §3

C. jejuni 4433 = format: cell-based, Campylobacter jejuni; settings: Campylobacter jejuni; for MBC: read-out: MBC; for MIC: read-out: MIC
Excerpt: as §1, §2, §3

P. aeruginosa 33b (PDR) = format: cell-based, Pseudomonas aeruginosa; settings: Pseudomonas aeruginosa, P. aeruginosa 33b (PDR); for MBC: read-out: MBC; for MIC: read-out: MIC
Excerpt: as §1, §2, §3

S. aureus 66/1 (MRSA) = format: cell-based, Staphylococcus aureus; settings: Staphylococcus aureus; for MBC: read-out: MBC; for MIC: read-out: MIC
Excerpt: as §1, §2, §3

E. coli SA/2 (ESBL) = format: cell-based, Escherichia coli; settings: Escherichia coli
Excerpt: as §1, §2, §3

[7] = system: E. coli 2252 (COL-resistant); format: cell-based, Escherichia coli; settings: Escherichia coli, E. coli 2252 (COL-resistant); for MBC: read-out: MBC; for MIC: read-out: MIC
Excerpt: as §1, §2, §3

SMILES | MBC [1] [µg/mL] | MIC [1] [µg/mL] | MBC (E. faecalis B3/101 (VRE)) [µg/mL] | MIC (E. faecalis B3/101 (VRE)) [µg/mL] | MBC [2] [µg/mL] | MIC [2] [µg/mL] | MBC [3] [µg/mL] | MIC [3] [µg/mL] | MBC [4] [µg/mL] | MIC [4] [µg/mL] | MBC [5] [µg/mL] | MIC [5] [µg/mL] | MBC [6] [µg/mL] | MIC [6] [µg/mL] | MBC (C. jejuni P5/4) [µg/mL] | MIC (C. jejuni P5/4) [µg/mL] | MBC (C. jejuni 4432) [µg/mL] | MIC (C. jejuni 4432) [µg/mL] | MBC (C. jejuni 4448) [µg/mL] | MIC (C. jejuni 4448) [µg/mL] | other results
C[C@H](CCC(=O)NCCNc1ccccc1)[C@H]1CC[C@H]2[C@@H]3CC[C@@H]4C[C@H](O)CC[C@]4(C)[C@H]3C[C@H](O)[C@]12C [Compound 8, (R)-4-((3R,5R,8R,9S,10S,12S,13R,14S,17R)-3,12-dihydroxy-10,13-dimethylhexadecahydro-1H-cyclopenta[a]phenanthren-17-yl)-N-(2-(phenylamino)ethyl)pentanamide] | > 64 | > 64 | > 64 | > 64 | > 64 | > 64 | > 64 | 16 (≈ 31.3 µM) | > 64 | > 64 | > 64 | > 64 | > 64 | > 64 | > 64 | > 64 | > 64 | > 64 | > 64 | > 64 | MBC (C. jejuni 4433): > 64 µg/mL; MIC (C. jejuni 4433): > 64 µg/mL; MBC (P. aeruginosa 33b (PDR)): > 64 µg/mL; MIC (P. aeruginosa 33b (PDR)): > 64 µg/mL; MBC (S. aureus 66/1 (MRSA)): > 64 µg/mL; MIC (S. aureus 66/1 (MRSA)): > 64 µg/mL; MBC (E. coli SA/2 (ESBL)): > 64 µg/mL; MIC (E. coli SA/2 (ESBL)): > 64 µg/mL; MBC [7]: > 64 µg/mL; MIC [7]: > 64 µg/mL
C[C@H](CCC(=O)N1CCN(C(=O)CC[C@H](C)[C@@H]2CC[C@@H]3[C@H]4CC[C@H]5C[C@@H](O)CC[C@@]5(C)[C@@H]4C[C@@H](O)[C@]32C)CC1)[C@H]1CC[C@H]2[C@@H]3CC[C@@H]4C[C@H](O)CC[C@]4(C)[C@H]3C[C@H](O)[C@]12C [Compound 4, (R)-4-((3R,5R,8R,9S,10S,12S,13R,14S,17R)-3,12-dihydroxy-10,13-dimethylhexadecahydro-1H-cyclopenta[a]phenanthren-17-yl)-1-(4-((S)-4-((3S,5S,8S,9R,10R,12R,13S,14R,17S)-3,12-dihydroxy-10,13-dimethylhexadecahydro-1H-cyclopenta[a]phenanthren-17-yl)pentanoyl)piperazin-1-yl) pentan-1-one] | > 64 | > 64 | > 64 | 64 (≈ 76.6 µM) | 64 (≈ 76.6 µM) | 64 (≈ 76.6 µM) | > 64 | 64 (≈ 76.6 µM) | 32 (≈ 38.3 µM) | 32 (≈ 38.3 µM) | 64 (≈ 76.6 µM) | 64 (≈ 76.6 µM) | > 64 | > 64 | > 64 | > 64 | > 64 | > 64 | > 64 | > 64 | antibacterial activity (in words) (E. faecalis B3/101 (VRE); E. faecalis B3/101): displayed the same effect; antibacterial activity (in words) [2]: exhibited antimicrobial activity; antibacterial activity (in words) [4]: active; antibacterial activity (in words) [5]: displayed an inhibitory effect; MBC (C. jejuni 4433): > 64 µg/mL; MIC (C. jejuni 4433): > 64 µg/mL; MBC (P. aeruginosa 33b (PDR)): > 64 µg/mL; MIC (P. aeruginosa 33b (PDR)): > 64 µg/mL; MBC (S. aureus 66/1 (MRSA)): > 64 µg/mL; MIC (S. aureus 66/1 (MRSA)): 64 µg/mL (≈ 76.6 µM); MBC (E. coli SA/2 (ESBL)): > 64 µg/mL; MIC (E. coli SA/2 (ESBL)): > 64 µg/mL; MBC [7]: > 64 µg/mL; MIC [7]: > 64 µg/mL
CCN(CC)CCNC(=O)CC[C@@H](C)[C@H]1CC[C@H]2[C@@H]3CC[C@@H]4C[C@H](O)CC[C@]4(C)[C@H]3C[C@H](O)[C@]12C [Compound 6, (R)—N-(2-(diethylamino)ethyl)-4-((3R,5R,8R,9S,10S,12S,13R,14S,17R)-3,12-dihydroxy-10,13-dimethylhexadecahydro-1H-cyclopenta[a]phenanthren-17-yl)pentanamide] | > 64 | > 64 | > 64 | > 64 | 64 (≈ 130 µM) | 64 (≈ 130 µM) | 64 (≈ 130 µM) | 64 (≈ 130 µM) | 64 (≈ 130 µM) | 64 (≈ 130 µM) | 64 (≈ 130 µM) | 64 (≈ 130 µM) | > 64 | > 64 | > 64 | > 64 | > 64 | > 64 | > 64 | > 64 | antibacterial activity (in words) [2]: exhibited antimicrobial activity; antibacterial activity (in words) [4]: active; antibacterial activity (in words) [5]: displayed an inhibitory effect; MBC (C. jejuni 4433): > 64 µg/mL; MIC (C. jejuni 4433): > 64 µg/mL; MBC (P. aeruginosa 33b (PDR)): > 64 µg/mL; MIC (P. aeruginosa 33b (PDR)): > 64 µg/mL; MBC (S. aureus 66/1 (MRSA)): 64 µg/mL (≈ 130 µM); MIC (S. aureus 66/1 (MRSA)): 64 µg/mL (≈ 130 µM); MBC (E. coli SA/2 (ESBL)): > 64 µg/mL; MIC (E. coli SA/2 (ESBL)): > 64 µg/mL; MBC [7]: > 64 µg/mL; MIC [7]: > 64 µg/mL

Source: patent publication US20250002450A1, “CATIONIC STEROID COMPOUNDS, METHOD OF OBTAINING THEREOF, FORMULATIONS COMPRISING THEREOF AND THEIR USES” (UNIVERSIDADE DO PORTO, priority 2021, published 2025)
